Experimental data: patent US20180000727A1, “COMPOSITION AND METHODS TO IMPROVE STABILITY, DOSING, PHARMA[…] PRODUCT SHELF LIFE OF ENDOCANNABINOIDS, PHYTOCANNABINOIDS AND […] CA[…] BY NASAL INHAER” (priority 2015, published 2018)

Tests used:
[1] = intranasally at 1.0 to 1.3 mg/kg in rats; cited from earlier work
[2] = oral administration; cited from earlier work
[3] = Twelve months storage, THC degradation to Cannabinol by gas chromatography; conditions: twelve months storage at −10 °C in darkness, 5 ml screw top bottles
From the text: Extract was concentrated by vacuum evaporation and percent of THC degradation quantitated by gas chromatograpy.

CCCCCc1cc(O)c2c(c1)OC(C)(C)[C@@H]1CCC(C)=C[C@@H]21 [THC, Delta-9-tetrahydrocannabinol]
analgesic response, time post administration [1]: 15 min
duration of analgesic response [1]: 120 min
oral dose reaching the circulation unchanged [2]: 10%
percent degraded to Cannabinol [3]: 22.6%
